Our source for the GI50 and TGI values is PubChem BioAssay (NCI).

Among the test systems are HT29 colon; IGROV1 ovarian; SW-620 colon; SF-268 CNS; OVCAR-8 ovarian; SF-539 CNS; MOLT-4 leukemia; K-562 leukemia; OVCAR-5 ovarian; TK-10 renal.
What all share (assay): growth of human tumour cells (NCI), 48 h

SMILES strings stand for the structures. Several values for one entry are separate records, joined by “and”; a condition that tells them apart may be missing. Equal values may be shown once.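 All cell lines were grown in 96-well plates and treated with compound for 48 hours. GI50 marks 50% less growth. TGI is the concentration that stops growth completely.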

As for `CC([C@H]1CCC2C3CCC4C(=O)C(NC=O)=CC[C@]4(C)C3CC[C@@]21C)N(C)C` (some centres undefined), the GI50 in the test with HT29 colon is 0.505 µM; in the test with IGROV1 ovarian it was 2.29 µM; with SW-620 colon it was 2.13 µM; with SF-268 CNS it was 2.17 µM; in the test with OVCAR-8 ovarian, 6.16 µM; in the test with SF-539 CNS, 1.58 µM. Besides, the GI50 with MOLT-4 leukemia is 2.55 µM; in the test on K-562 leukemia, 0.965 µM; in the test with OVCAR-5 ovarian, 8.45 µM; in the test on TK-10 renal it was 9.71 µM. The TGI with HT29 colon came to 2.37 µM; with SW-620 colon it was 5.54 µM; in the test on SF-268 CNS, 5.48 µM; in the test on OVCAR-8 ovarian, 40.9 µM; with SF-539 CNS it was 3.14 µM; in the test on MOLT-4 leukemia it was 10.2 µM. Also, the TGI in the test with K-562 leukemia was greater than 23.8 µM; with OVCAR-5 ovarian, 24.9 µM; in the test with TK-10 renal, 29.4 µM.
With `Cc1cccc2c1NC(c1c(C)[nH]c3ccccc13)C2` (centres undefined), the TGI with HT29 colon, in the test with IGROV1 ovarian, in the test on SW-620 colon, with SF-268 CNS, with OVCAR-8 ovarian and with SF-539 CNS was greater than 100 µM each time. The TGI with MOLT-4 leukemia, in the test with K-562 leukemia, in the test with OVCAR-5 ovarian and in the test with TK-10 renal was greater than 100 µM in each case.
In the case of `CN1CCN(c2nc(C3=C(c4c[nH]c5ccccc45)C(=O)NC3=O)c3ccccc3n2)CC1`, the GI50 in the test with HT29 colon was 14 µM and 12.3 µM; in the test with IGROV1 ovarian, 21.4 µM and 21 µM; in the test with SW-620 colon, 19.8 µM and 19.1 µM; in the test with SF-268 CNS it was 17.2 µM and 17.7 µM; in the test on OVCAR-8 ovarian, 17.2 µM and 18.4 µM; in the test with SF-539 CNS, 10.5 µM and 16.8 µM. The GI50 with MOLT-4 leukemia is 7.61 µM and 10.2 µM; in the test on K-562 leukemia it was 11.9 µM and 12.6 µM; in the test with OVCAR-5 ovarian, 28.7 µM and 34.5 µM; in the test with TK-10 renal, 27.9 µM and 17.5 µM. Moreover, the TGI in the test with HT29 colon was 65 µM and 43.4 µM; in the test on IGROV1 ovarian, 65 µM and 41.3 µM; in the test with SW-620 colon it was 65 µM and 35.9 µM; in the test with SF-268 CNS, 40.6 µM and 36.6 µM; in the test with OVCAR-8 ovarian, 65 µM and 57.5 µM; with SF-539 CNS, 19.7 µM and 32.9 µM. The TGI with MOLT-4 leukemia was 35.9 µM and 54.8 µM; with K-562 leukemia it was 65 µM and 49.2 µM; in the test with OVCAR-5 ovarian, 65 µM and > 100 µM; in the test with TK-10 renal, 65 µM and 49 µM.
For the molecule `COc1cccc(-n2cnc3c(N/N=C/c4ccncc4)ncnc32)c1`, the GI50 in the test with HT29 colon was 8.07 µM; in the test on IGROV1 ovarian, 8.65 µM; in the test on SW-620 colon, greater than 25 µM; in the test on SF-268 CNS, 24.5 µM; in the test on OVCAR-8 ovarian, greater than 20.6 µM; with SF-539 CNS, greater than 18.9 µM. Moreover, the GI50 was greater than 25 µM in the test on MOLT-4 leukemia, 10.9 µM in the test with K-562 leukemia, greater than 25 µM with OVCAR-5 ovarian and 9.59 µM in the test on TK-10 renal. The TGI in the test on HT29 colon, in the test with IGROV1 ovarian, in the test with SW-620 colon, with SF-268 CNS, in the test with OVCAR-8 ovarian and in the test on SF-539 CNS was greater than 25 µM throughout. Also, the TGI with MOLT-4 leukemia, in the test on K-562 leukemia, in the test with OVCAR-5 ovarian and in the test on TK-10 renal was greater than 25 µM throughout.
In the case of `COC(=O)c1ccc2n[se]nc2c1`, the TGI in the test on HT29 colon, with IGROV1 ovarian, in the test on SW-620 colon, in the test with SF-268 CNS, in the test with OVCAR-8 ovarian and in the test with SF-539 CNS was greater than 100 µM in each case. The TGI in the test with MOLT-4 leukemia, in the test on K-562 leukemia, in the test on OVCAR-5 ovarian and in the test with TK-10 renal was greater than 100 µM each time.
`COc1cc2c3c(c1OC)C1(C=CC(=O)C=C1)CC3N(C(=O)OC(C)(C)C(Cl)(Cl)Cl)CC2` (centres undefined): the TGI was 24.4 µM in the test on HT29 colon; 41.9 µM with IGROV1 ovarian; 43.1 µM with SW-620 colon; 31.8 µM in the test on SF-268 CNS; 31.5 µM in the test on OVCAR-8 ovarian; 30.4 µM with SF-539 CNS. Further, the TGI with MOLT-4 leukemia was 17.9 µM; in the test on K-562 leukemia it was 50.2 µM; with OVCAR-5 ovarian, 38.4 µM; with TK-10 renal it was greater than 100 µM.
Regarding `CC(C)=CCNc1ncnc2c1ncn2C1OC(COP(=O)(O)O)C(O)C1O` (centres undefined), the GI50 in the test with HT29 colon was 3.74 µM; with IGROV1 ovarian, 11 µM; with SW-620 colon, 3.89 µM; with SF-268 CNS, 8.77 µM; in the test on OVCAR-8 ovarian it was 1.6 µM; with SF-539 CNS it was 4 µM. The GI50 with MOLT-4 leukemia was 4.22 µM; in the test on K-562 leukemia, 4.22 µM; with OVCAR-5 ovarian, 32.9 µM; in the test with TK-10 renal, 2.06 µM. Besides, the TGI is 42.5 µM with HT29 colon; greater than 100 µM in the test on IGROV1 ovarian; greater than 100 µM in the test with SW-620 colon; greater than 100 µM with SF-268 CNS; 3.64 µM in the test on OVCAR-8 ovarian; 38.9 µM with SF-539 CNS. For the same molecule, the TGI in the test on MOLT-4 leukemia was greater than 48.5 µM; in the test on K-562 leukemia, greater than 100 µM; with OVCAR-5 ovarian, greater than 100 µM; with TK-10 renal, 5.59 µM.
`Oc1ccc(Br)cc1CN1CCN(Cc2ccc(Cl)cc2)CC1`: the GI50 was 23.2 µM with HT29 colon; 44.3 µM in the test on IGROV1 ovarian; 22.2 µM with SW-620 colon; 31.5 µM with SF-268 CNS; 24.8 µM with OVCAR-8 ovarian; 32 µM in the test on SF-539 CNS. In addition, the GI50 was 26.7 µM with MOLT-4 leukemia, 10.2 µM in the test on K-562 leukemia, 21.2 µM in the test on OVCAR-5 ovarian and 24.8 µM in the test on TK-10 renal. In addition, the TGI is 62.5 µM in the test with HT29 colon; greater than 100 µM in the test on IGROV1 ovarian; 92.5 µM with SW-620 colon; greater than 100 µM in the test on SF-268 CNS; greater than 100 µM in the test with OVCAR-8 ovarian; greater than 100 µM with SF-539 CNS. Further, the TGI in the test on MOLT-4 leukemia is greater than 100 µM; in the test on K-562 leukemia, greater than 100 µM; in the test with OVCAR-5 ovarian, 75.2 µM; with TK-10 renal, greater than 100 µM.
For `COc1ccc(NC(=O)CC(=O)n2nc(-c3ccccc3)c(N=Nc3ccc(C)cc3)c2-c2ccccc2)cc1`, the TGI with HT29 colon is greater than 100 µM; with IGROV1 ovarian it was 49.9 µM; with SW-620 colon it was greater than 100 µM; with SF-268 CNS it was 53.4 µM; in the test with OVCAR-8 ovarian, 63.3 µM; in the test with SF-539 CNS, 44 µM. The TGI in the test with MOLT-4 leukemia was greater than 100 µM; in the test on K-562 leukemia, greater than 100 µM; in the test on OVCAR-5 ovarian, greater than 100 µM; with TK-10 renal, 55.1 µM.
